Laboratory results: patent US8273340B2, “Methods and compositions for attracting or repelling cockroaches” (The United States of America, as represented by the …, priority 2008, dated 2012)
Marks after values point to notes of the source that are not given here.

Assays:
[1] = system: Male cockroaches (Blattela germanica); experiment: Y-tube olfactometer bioassay, test compound in mineral oil on filter paper; assay type: in vivo; details: 0.5% w/v solution in mineral oil; mean of 3 replicates; 65% or more = significantly attractive (*), 35% or less = significantly repellent (**)
Text: The German cockroach (Blattela germanica) is one of the most difficult cockroach species to control in homes and was used to illustrate the invention. […] Since the cockroaches never contact the test sample, their response is strictly to the molecules in the air stream.
(§1) Olfactometer Bioassay: The Y-tube bioassay apparatus was similar to that described by Vander Meer et al. (J. Chem. Ecol., 14: 825-838 (1988)). Compressed air (breathing-air quality) was passed into the two choice arms at 0.2 l/min for a total flow of 0.4 l/min. Flow rates were adjusted and controlled by two flow meters (Omega Engineering, Inc.). All tubing carrying the air was either copper or Teflon. Prior to evaluating treatment samples, a positive standard was put through the bioassay procedure. […] Test samples (10.0 μl) and the solvent blank (mineral oil, 10.0 μl) were applied to filter paper strips (0.3×1.0 cm, Whatman No. 1) and then each was placed into one of the two choice arms. Male cockroaches (Blattela germanica) were prepared for their introduction into the olfactometer by placing them in a Teflon tube (3 cm×0.8 cm) that had one end blocked with a piece of copper mesh screen. The open end of tube was closed with a lightly attached piece of tape. The cockroaches were introduced individually by removing the tape and quickly inserting the Teflon tube into the entrance arm of the olfactometer. […] The initial choice of the cockroach was recorded. The cockroach was removed and the process was repeated 10 times with the same test and blank samples. The 10 choices usually required less than 5 minutes to complete. After each set of 10 cockroaches had made their choice, the olfactometer was rinsed with acetone, dried, and reassembled for the next test. Each sample was retested with the same cockroaches, but with the sample and control in reverse positions. The sum of the results from the two tests represented one replicate. This procedure minimized bias inherent in the apparatus. A null hypothesis of equal numbers of cockroaches in each arm was tested with chi-square analysis. […] Results in-between were neutral.
The diameter of the Y part of the olfactometer provided a close fit for the cockroach, thus keeping it in the center of the walkway.

[2] = system: Male cockroaches (Blattela germanica); experiment: Y-tube olfactometer bioassay of controlled release pellets aged in a fume hood; assay type: in vivo; details: for Percent Response: mean of 3 replicates; for activity in the olfactometer (in words): charcoal as the absorbent, after one hour in the fume hood
Text: as §1, with “procedure. The standard was initially an attractive food material (grape flavoring concentrate used at 0.33%) and later 0.5% (w/v) methyl tiglate, one of the compounds of the present invention, in white, light mineral oil (Aldrich Chemical Co.).” for “procedure.”
Controlled Release Formulations: Four esters found to be significant cockroach attractants were selected for evaluation in controlled release formulations-developed by BioGuard, Inc. Six controlled release formulations from BioGuard were evaluated in the olfactometer. The attractants were methyl tiglate, butyl hexanoate, propyl propanoate, and butyl heptanoate. The attractants were absorbed to either coconut shell charcoal pellets or potassium substituted crystalline zeolite pellets, and then coated with water soluble methylcellulose. The powdered methyl cellulose was dissolved in 80° C. water until saturation, cooled to approx 25° C., the pellets immersed into the solution for a 30 sec, and removed and rapidly air dried with 30° C. pre-dried air. The end products were pellets (charcoal=2 mm×4 mm dia.; molecular sieve=4 mm×1.5 mm dia.). […] A single pellet was used in place of the filter paper described above. The control side was left blank.

[3] = Release rate of attractants from sustained release delivery systems; assay type: physicochemical
Text: Several secondary release rate control systems were developed. The first was a sachet that can contain the above polymer releasing system. This sachet can be either polyvinylidine chloride (PvdC) barrier film (e.g., Saranex™) enclosed in a thermally sealed metalized polyethylene container to eliminate release of active compounds, or a metalized polyethylene sachet with a removable seal that covers a vapor diffusion controlling orifice which when removed begins the release process from the internal polymer/carrier, or metalized polyethylene sachet which contains a small vial with a vapor controlling orifice. In the case of the Saranex™ sachet, the actual porosity of the Saranex™ control release is based on type of PVdC and thickness of the film. In the case of the metalized polyethylene sachet and internal polymer/carrier, a specific orifice size controlled the rate of diffusion of the active from the device, as shown in FIG. 4. An additional means of containing and reducing the release of the liquid active compounds and providing a solid support for use in the above delivery system involved sorbing the active compounds into an inert absorbent such as Membrana GmbH's expanded microporous polyolefin Accurel® MP100 which are granular or pelletized polyethylenes that have 10-50 μm air pockets throughout and can contain up to 90% of their volume in active compounds . MP100 was easily loaded with 80% by wt active ingredient due to its porosity. […] Thus, placement into the metalized polyethylene sachet with its diffusion regulating orifice was required.
Active compounds (1 gm active in Accurel® MP100) were sealed within the metalized polyethylene sachet, and a 0.5 mm hole placed into the film, and sealed until use with a metalized tape. Release rates for propyl propanoate, methyl tiglate, and butyl hexanoate were calculated at 15.5, 11.4, and 4.8 mg/day, respectively. Longevity of this system was calculated to be 64, 87, and 208 days, respectively.
Release rates for the thermoset urethane (Flexane® 80P) and synthetic rubbers systems ranged from 0.055 to 0.2 mg/cm^2/day, depending on durometer/hardness that is a measure of polymer crosslinking. Best results were obtained at durometer/hardness levels above D30. Release rates for the Saranex system without the release control provided by the metalized polyethylene and diffusion control orifice were 187, 236, and 7 mg/day for propyl propanoate, methyl tiglate, and butyl hexanoate, respectively.

[4] = system: German roaches (B. germanica); experiment: Two-harborage arena bioassay of sustained release polymer formulations; assay type: in vivo; details: formulated with Santoprene; counted after 24 hours
Text: Evaluation of sustained release formulations: Three cockroach attractants (methyl tiglate, butyl heptanoate, and propyl proprionate) were formulated in one or more polymer formulations (Urethane, Pellethane, Santoprene, and/or Polyethylene) as indicated in Table 4.A sweater box (1.5×2.0×0.5 ft) provided the test arena. The sides of the arena were coated with a blend of mineral oil and Vaseline petroleum jelly. The tops of two 8 oz paper ice cream cups were tapped to the arena floor with masking tape and, prior to the addition of the test cockroaches, inverted cups without holes were fixed to the tapped lids. Twenty-five laboratory reared late stage nymphs or adult male German roaches (B. germanica), starved for 72 hrs, were added to the arena and allowed to calm down (ca. 1 hour). The starting inverted ice cream cups were carefully removed and each ice cream cup top was then supplied with a water tube (1.5 ml scintillation vial with water and stoppered with cotton), one lab chew food pellet, and either a test attractant polymer formulation or the corresponding polymer blank control. […] The cups were oriented so that the holes were facing each other. The number of roaches that sought harborage in the cups was counted after 24 hours by plugging the entrance holes with cotton, the roaches inside euthanized, and the numbers in each cup counted.

cockroach = experiment: Bioassays for cockroach attraction of attractants sorbed into thermoplastic polymers; assay type: in vivo
Text: To alleviate the reactivity with the carrier polymers, we attempted to load active compounds into a series of thermoplastic polymers including urethanes and synthetic rubbers, based on the behavior of the active compounds as plasticizers. […] Propyl propanoate, methyl hexanoate, and methyl tiglate were loaded into a series of thermoplastic granulated feed materials, including 4-(1,1,3,3-tetramethylbutyl) with ethylene-5-ethylidenebicyclo[2.2.1]hept-2-ene-propene thermoplastic synthetic rubber (Santopren™ 203-40). Santoprene™ is a thermoplastic elastomer (TPE that is a mixture of in-situ cross linking of EPDM rubber and polypropylene compounds). Because of the longer life of Santopren™ in both extreme hot and cold environments, it is often preferred over the use of rubber. Pellethane™ 2102-55D is a polyester polycaprolactone polyurethane. Methyl hexanoate and methyl tiglate were sorbed using heat and pressure (60° C., 40 psi, 30 min) into the Santoprene® and were effective in bioassays for cockroach attraction. […] Loading rates of active compounds into the Santoprene®, using slightly elevated temperature (60° C.) and 40 psi pressure, were 8-12% by wt for the two compounds.

[5] = Charcoal absorbent, methylcellulose coated pellet, aged 1 hour in fume hood
[6] = charcoal controlled release formulation, aged 24 hours in fume hood
[7] = charcoal controlled release formulation, aged 48 hours in fume hood

| SMILES | Percent Response [1] | other results |
| --- | --- | --- |
| CCCCOC(C)=O [Butyl Acetate] | 45.0% | – |
| CCCCOC(=O)CCC [Butyl Butanoate] | 35.0** % | – |
| CCCCCCC(=O)OCCCC [Butyl Heptanoate] | 80.0* % | Percent Response [2, 5]: 70.0%; activity in the olfactometer (in words) [2]: significantly active; Percent Response [2, 6]: 61.6%; Percent Response [2, 7]: 58.3% |
| CCCCCC(=O)OCCCC [Butyl Hexanoate] | 75.0* % | Percent Response [2, 5]: 82.0%; activity in the olfactometer (in words) [2]: significantly active; Percent Response [2, 6]: 70.0%; Percent Response [2, 7]: 61.6%; Longevity of the release system ([3]; 1 gm active in Accurel MP100 in metalized polyethylene sachet with 0.5 mm hole): 208 days; Release rate ([3]; 1 gm active in Accurel MP100 in metalized polyethylene sachet with 0.5 mm hole, FIG. 3): 4.8 mg/day; Release rate ([3]; Saranex system without metalized polyethylene and diffusion control orifice): 7 mg/day; attraction to treatment harborage versus polymer blank control (in words) [4]: significant attraction and subsequent aggregation |
| CCCCCCCCC(=O)OCCCC [Butyl Nonanoate] | 40.0% | – |
| CCCCCCCC(=O)OCCCC [Butyl Octanoate] | 55.0% | – |
| CCCCOC(=O)CCCC [Butyl Pentanoate] | 50.0% | – |
| CCCCOC(=O)CC [Butyl Propanoate] | 15.0** % | – |
| CCCC(=O)OCC [Ethyl Butyrate] | 63.3% | – |
| CCCCCCC(=O)OCC [Ethyl Heptanoate] | 40.0% | – |
| CCCCCC(=O)OCC [Ethyl Hexanoate] | 75.0* % | – |
| CCCCCCCC(=O)OCC [Ethyl Octanoate] | 50.0% | – |
| CCCCC(=O)OCC [Ethyl Pentanoate] | 65.0* % | – |
| CCOC(=O)CC [Ethyl Propanoate] | 65.0* % | – |
| CCCCCCOC(=O)CCC [Hexyl Butanoate] | 35.0** % | – |
| CCCC(=O)OC [Methyl Butanoate] | 55.0% | – |
| CCCCCCCCCC(=O)OC [Methyl Decanoate] | 55.0% | – |
| CCCCCCCCCCCC(=O)OC [Methyl Dodecanoate] | 45.0% | – |
| CCCCCCC(=O)OC [Methyl Heptanoate] | 50.0% | – |
| CCCCCC(=O)OC [Methyl Hexanoate] | 45.0% | effect in bioassays for cockroach attraction (in words) (cockroach; loaded into Dow Pellethane): worked less well; effect in bioassays for cockroach attraction (in words) (cockroach; sorbed into Santoprene (60° C., 40 psi, 30 min)): effective |
| CCCCCCCCC(=O)OC [Methyl Nonanoate] | 45.0% | – |
| CCCCC(=O)OC [Methyl Pentanoate] | 50.0% | – |
| CCC(=O)OC [Methyl Propanoate] | 60.0% | – |
| CCCCCCCCCCC(=O)OC [Methyl Undecanoate] | 45.0% | – |
| CCCOC(=O)CCC [Propyl Butanoate] | 35.0** % | – |
| CCCOC(C)=O [Propyl acetate] | 40.0% | – |
